Source: US20040266886A1, “Cosmetic and/or pharmaceutical superfatting preparations” (priority 2001, published 2004)
Read-outs that look alike come from different tables or passages of the source.

Experiments:
pig's epidermis [1] = assay: Dermatological compatibility: transepidermal water loss (TEWL), gravimetric; settings: for TEWL [%-rel] = [treated/untreated * 100] − 100%: […] by weight fatty acid partial glyceride in 17% by weight Plantapon PS 10, pH 5.5, skin treated 30 minutes at 40° C., lower value = better compatibility
Experimental: (§1) Dermatological compatibility was evaluated by determining the transepidermal water loss (TEWL) in a pig's epidermis. To this end, defined pieces of skin were treated with the various test solutions for 30 minutes at 40° C. and the TEWL value was gravimetrically determined. The test solutions were mixtures of 17% by weight Plantapon® PS 10 (sodium lauryl ether sulfate and Lauryl Glycoside, Cognis Düsseldorf) with 1.5% by weight fatty acid partial glycerides (see Table 1) in preservative-containing water (WAS 10% by weight). The pH was adjusted to 5.5 with citric acid.

pig's epidermis [2] = settings: pH 5.5
Experimental: as §1

## Isostearic acid monoglyceride (>90) [Example 8]
pig's epidermis [1]
  TEWL [%-rel] = [treated/untreated * 100] − 100%: 18.5 %-rel

## Isostearic acid mono/diglyceride (65:35) [Example 7]
pig's epidermis [2]
  TEWL [%-rel] = [treated/untreated * 100] − 100%: 22.0 %-rel

## Glycerol monocaprylate (>90) [Example 2]
pig's epidermis [1]; compared with mixtures of 65% by weight monoglyceride and 35% by weight diglyceride
  Transepidermal water loss / dermatological compatibility (in words): very good compatibility

## Lauric acid mono/diglyceride (65:35) [Example 3]
pig's epidermis [2]
  TEWL [%-rel] = [treated/untreated * 100] − 100%: 20.5 %-rel

## CCCCCCCCCCCC(=O)OCC(O)CO (centres unmarked) [Example 4, Lauric acid monoglyceride (>90)]
pig's epidermis [1]
  TEWL [%-rel] = [treated/untreated * 100] − 100%: 10.5 %-rel
